From patent publication US20240197733A1, “A GABA RECEPTOR MODULATOR FOR USE IN THE TREATMENT OF PAIN” (SANIONA A/S, priority 2021, published 2024)

Legend:
Format in all cases: in vivo, Sprague-Dawley rats
[1] = tested on: electrocutaneous stimulation-induced facial pain rodent model; experiment: ES-induced facial pain model, mechanical allodynia (Von Frey filaments), acute treatment; conditions: 30 mg/kg po, acute, 2 and 4 hours post dosing; p<0.001, p<0.0001 vs vehicle
Source text: (§1) The electrocutaneous stimulation-induced facial pain rodent model is a reproducible orofacial pain model in which depilated cheek area of rats are repeatedly subjected to electrical stimulation. Repeated electrical stimulation at low intensities produces craniofacial pain that mimics the behavioral characteristics of TN such as development of mechanical and thermal allodynia at cheeks despite no visible edema, swelling or excessive injury and tissue damage.
(§2) Male wild type, Sprague-Dawley rats (Charles River Laboratories) born in-house at AfaSci Research Laboratory between May 24, 2020 to May 28, 2020. At approximately 3 months of age (approximately 350 g-450 g body weight) the rats were deemed suitable for the electrocutaneous stimulation-induced facial pain model. Prior to the experiment, the rats were maintained in group cages (3 rats per cage) in a controlled environment (temperature: 21.5±4.5° C./relative humidity: 35-55%) under a standard 12 h light/12 h dark lighting cycle (lights on at 06:00).
(§3) The required quantity of the compounds are weighed and dissolved in 100% DMSO in a volume amounting to 5% of the total volume while placed on a stirrer. The weight of the compounds refers to the free base weights. Once the solution becomes clear/transparent, the remaining volume of the vehicle is added (30% HPBCD prepared in MQ water) to final concentrations of 0.1, 0.3, and 1 mg/ml for Compound 1 and 3 mg/ml of Carbamazepine. The solutions are kept on a stirrer before- and during administration of the compounds to the animals.
(§4) The experimenter assessing the behavioral responses to drug administration is blinded to the drug treatment to the animals. Each treatment group is coded according the scheme below: • A. Vehicle (5% DMSO+30% HPBCD): 10 ml/kg • B. Compound 1: 1 mg/kg • C. Compound 1: 3 mg/kg • D. Compound 1: 10 mg/kg • F. Carbamazepine: 30 mg/kg
(§5) Second baseline measurement was carried out similarly to day 1. […] For each animal, the average of the two baseline nociceptive measurements were calculated within each pain modality (mechanical, heat- and cold pain), and used as baseline (“Baseline” point on figures).
Similarly, to day 1- and 2, all rats were subjected to acclimatization to test equipment and decapicone followed by measurements of ES-induced facial mechanical- heat- and cold allodynia (“0” time point on figures). […] Compound 1, vehicle and Carbamazepine was administered perorally in doses of 1, 3, and 10 mg/kg (Compound 1) or 30 mg/kg (carbamazepine) and drug effects on pain thresholds were evaluated 2- and 4 hours after drug administration by assessment of mechanical- (von Frey) and thermal hypersensitivity (heat- and cold stimulation respectively).
(§6) Decrease in ES-induced pain threshold was evaluated 22 hours following electrical stimulation of the depilated left cheek area (between the eye and ear ridge, this is a receptive field of trigeminal nerve) of each rat and was manifested as facial withdrawal following application of Von Frey filaments for mechanical allodynia and a heat lamp and acetone test for thermal hyperalgesia and allodynia respectively. Baseline pain behaviors were measured similarly to ES-induced facial pain measurements, except that rats were not subjected to ES stimulation.
Mechanical pain thresholds were assessed by measuring each rat's facial withdrawal threshold (g) in response to von Frey monofilaments (BioSeb). […]

[2] = tested on: electrocutaneous stimulation-induced facial pain rodent model; experiment: ES-induced facial pain model, cold thermal allodynia (acetone test), acute treatment; conditions: 30 mg/kg po, 2 and 4 hrs post dose, p<0.001 and p<0.0001 vs vehicle
Source text: as §1, §2
The required quantity of the compounds are weighed and dissolved in 100% DMSO in a volume amounting to 5% of the total volume while placed on a stirrer. The weight of the compounds refers to the free base weights. […]
as §5
Similarly, to day 1- and 2, all rats were subjected to acclimatization to test equipment and decapicone followed by measurements of ES-induced facial mechanical- heat- and cold allodynia (“0” time point on figures). […] Compound 1, vehicle and Carbamazepine was administered perorally in doses of 1, 3, and 10 mg/kg (Compound 1) or 30 mg/kg (carbamazepine) and drug effects on pain thresholds were evaluated 2- and 4 hours after drug administration by assessment of mechanical- (von Frey) and thermal hypersensitivity (heat- and cold stimulation respectively). […]

[3] = tested on: electrocutaneous stimulation-induced facial pain rodent model; experiment: ES-induced facial pain model, hot thermal hyperalgesia (lamp test, selective C fiber testing), acute treatment; conditions: 30 mg/kg po, post 4 hours of dose, p<0.0001
Source text: as §1, §2, §3, §4
Second baseline measurement was carried out similarly to day 1. Immediately following the second baseline recording, each rat received 1 hr of electrocutaneous stimulation at cheek (0.4 mA intensity, 10 ms duration, 1 s inter-pulse interval). For each animal, the average of the two baseline nociceptive measurements were calculated within each pain modality (mechanical, heat- and cold pain), and used as baseline (“Baseline” point on figures).
Similarly, to day 1- and 2, all rats were subjected to acclimatization to test equipment and decapicone followed by measurements of ES-induced facial mechanical- heat- and cold allodynia (“0” time point on figures). Based on the individual rat's mechanical- and thermal hypersensitivity, 40 rats were selected for drug testing. Compound 1, vehicle and Carbamazepine was administered perorally in doses of 1, 3, and 10 mg/kg (Compound 1) or 30 mg/kg (carbamazepine) and drug effects on pain thresholds were evaluated 2- and 4 hours after drug administration by assessment of mechanical- (von Frey) and thermal hypersensitivity (heat- and cold stimulation respectively).
as §6
Immediately following assessment of mechanical pain threshold, thermal (hot- and cold induced) pain was determined. […]

## NC(=O)N1c2ccccc2C=Cc2ccccc21 [Carbamazepine, reference compound]
[1]
  effect on mechanical allodynia (mechanical pain threshold, Von Frey) vs vehicle: significant analgesic effects
[2]
  effect on cold pain threshold (acetone test, facial withdrawal latency) vs vehicle: significant enhancement of the cold pain threshold
[3]
  effect on heat thermal hyperalgesia (facial withdrawal latency) vs vehicle: full reversal of heat hyperalgesia
